Measured values reported in paper PMC6896740, “Safety, tolerability, pharmacokinetics, and pharmacodynamics of PF-06650833, a selective interleukin-1 receptor-associated kinase 4 (IRAK4) inhibitor, in single and multiple ascending dose randomized phase 1 studies in healthy subjects” (Arthritis Research & Therapy, 2019).
Read-outs that look alike come from different tables or passages of the source.

Experiment: Study 2 (MAD) plasma and urine pharmacokinetics
Format: in vivo, human
Details: for AUC: read-out: AUCtau, geometric mean (%CV); for Cmax: read-out: Cmax, geometric mean (%CV); for Tmax: read-out: Tmax, median (range)
Procedure: Subjects were enrolled sequentially into seven cohorts. Within each cohort, eight subjects and two subjects were randomized to receive PF-06650833 and placebo, respectively. Doses for all cohorts were administered after a standard (not high-fat) meal. Multiple dosing regimens (once daily [QD] 24 h apart, twice daily [BID] 12 h apart, three times per day [TID] 8 h apart, and four times per day [QID] 6 h apart) were used to provide required total daily doses. In the final dosing scheme, multiple oral doses of PF-06650833 IR suspension formulations at 25, 100, 250, and 750 mg BID and 1000 mg QID were administered in cohorts 1–5. PF-06650833 IR 330 mg TID (cohort 6) and an MR tablet at a dose of 300 mg QD (cohort 7) were also evaluated (see Fig. 1b for final dosing scheme).
For both studies, samples of blood (and urine in study 2) were taken for evaluation of PK/PD parameters (see Additional file 1: Supplemental Methods). PK samples were obtained at the nominal time relative to dosing (± 10%). Plasma and urine samples were analyzed using validated, sensitive, and specific liquid chromatography tandem mass spectrometric methods (at Pfizer Inc., Groton, CT, USA, for study 1 and at Worldwide Pharmacokinetics, Dynamics and Metabolism, Cambridge, MA, USA, for study 2). The lower limit of quantification for PF-06650833 in plasma was 0.0500 ng/mL. The lower limit of quantification for PF-06650833 in urine was 1.00 ng/mL. Serum samples were also analyzed for hsCRP, and plasma samples were analyzed for 4β-hydroxycholesterol and cholesterol.
PK parameters were calculated using non-compartmental analysis of concentration-time data. For study 1 only, data from cohort 1 (period 4 [IR 30 mg] versus period 5 [IR 30 mg + food]) and cohort 3 (period 2 [MR 30 mg] versus period 3 [MR 30 mg + food]) were used to estimate the effect of food intake. Cmax and AUC were calculated for each subject and treatment, with and without food, after which a within-subject difference could be found between fed (high-fat meal) and fasted doses. Analysis of covariance was used to model these within-subject differences and to calculate 95% confidence intervals (CIs) for the differences for each dose (IR 30 mg and MR 30 mg). For study 2 only, the amounts of PF-06650833 in urine and renal clearance were listed and summarized descriptively. As part of the routine safety laboratory monitoring, the presence of any atypical crystals in urine specimens was semi-quantitatively assessed microscopically by typical histopathologic methods and scored as numbers of crystals per high power field (hpf); higher abundance (moderate or many) was defined as ≥ 15/hpf. No formal interim analyses were conducted.
22 In Study 2, pre-dose blood samples were collected for PK analysis on days 1, 2, 4, 7, 10, and
23 14. Post-dose samples were collected for PK analysis on days 1 and 14 at 0.5, 1, 2, 4, 6, 8, 10,
24 12, and 16 hours post-dose; on day 7 at 1, 2, 4, 6, 8, and 12 hours post-dose; and on days 15,
27 hours post-dose. […]
32 Blood samples (2 mL, to obtain ≥0.5 mL plasma) were collected in K2EDTA tubes
33 (dipotassium ethylenediaminetetraacetic acid) and centrifuged at ~1700 x g for 10 minutes at
34 4 °C, with plasma then stored in polypropylene tubes at -70 °C within 1 hour of collection.
35 Plasma samples were analyzed using a validated, sensitive , and specific liquid
36 chromatography tandem mass spectrometric method (LC -MS; at Pfizer Inc, Groton, CT, USA
37 for Study 1; and at Worldwide Pharmaco kinetics, Dynamics, and Metabolism, Cambridge,
38 MA, USA for Study 2). The lower limit of quantification (LLOQ) for PF-06650833 in plasma
39 was 0.0500 ng/mL. Between-day assay accuracy values were also calculated (not shown).
40 In Study 2 only, urine samples we re collected in aliquots pre-dose. Cumulative 0–12-hour
41 and 12–24-hour urine samples were also collected as follows: from day 1 after morning
42 dosing to day 2 before morning dosing (and before breakfast) for cohorts 6 –8 only; and from […]

[1] = IR 25 mg BID, day 14, fed (standard meal)
[2] = IR 100 mg BID, day 14, fed (standard meal)
[3] = IR 250 mg BID, day 14, fed (standard meal)
[4] = IR 330 mg TID, day 14, fed (standard meal)
[5] = IR 750 mg BID, day 14, fed (standard meal)
[6] = MR 300 mg QD, day 14, fed (standard meal)
[7] = human, plasma, oral, 25 mg, IR 25 mg BID, day 1, fed (standard meal)
[8] = human, plasma, oral, 25 mg, IR 25 mg BID, day 14, fed (standard meal)
[9] = human, plasma, oral, 100 mg, IR 100 mg BID, day 1, fed (standard meal)
[10] = human, plasma, oral, 100 mg, IR 100 mg BID, day 14, fed (standard meal)
[11] = human, plasma, oral, 250 mg, IR 250 mg BID, day 1, fed (standard meal)
[12] = human, plasma, oral, 250 mg, IR 250 mg BID, day 14, fed (standard meal)
[13] = human, plasma, oral, 300 mg, MR 300 mg QD, day 1, fed (standard meal)
[14] = human, plasma, oral, 300 mg, MR 300 mg QD, day 14, fed (standard meal)
[15] = human, plasma, oral, 330 mg, IR 330 mg TID, day 1, fed (standard meal)
[16] = human, plasma, oral, 330 mg, IR 330 mg TID, day 14, fed (standard meal)
[17] = human, plasma, oral, 750 mg, IR 750 mg BID, day 1, fed (standard meal)
[18] = human, plasma, oral, 750 mg, IR 750 mg BID, day 14, fed (standard meal)
[19] = human, plasma, oral, 1000 mg, IR 1000 mg QID, day 1, fed (standard meal)

CC[C@@H]1[C@H](F)C(=O)N[C@@H]1COc1nccc2cc(C(N)=O)c(OC)cc12 [PF-06650833, 1-{[(2S,3S,4S)-3-Ethyl-4-fluoro-5-oxopyrrolidin-2-yl]methoxy}-7-methoxyisoquinoline-6-carboxamide]
Tmax, median (range) (IR 25 mg BID, day 1, fed (standard meal)): 2.03 (1.00–4.00) h | Ae24% (drug recovered unchanged in urine up to 24 h), geometric mean (%CV) [1]: 0.7288 (27) % | CL/F, geometric mean (%CV) [1]: 122.4 (26) L/h | Cav, geometric mean (%CV) [1]: 17.03 (26) ng/mL | Cmin, geometric mean (%CV) [1]: 4.064 (46) ng/mL | PTF (peak-trough fluctuation), geometric mean (%CV) [1]: 1.868 (21) | Rac (observed accumulation ratio), geometric mean (%CV) [1]: 1.250 (19) | Ae24% (drug recovered unchanged in urine up to 24 h), geometric mean (%CV) [2]: 0.9414 (29) % | CL/F, geometric mean (%CV) [2]: 128.9 (16) L/h | Cav, geometric mean (%CV) [2]: 64.72 (16) ng/mL | Cmin, geometric mean (%CV) [2]: 14.13 (40) ng/mL | PTF (peak-trough fluctuation), geometric mean (%CV) [2]: 1.740 (16) | Rac (observed accumulation ratio), geometric mean (%CV) [2]: 1.373 (23) | Ae24% (drug recovered unchanged in urine up to 24 h), geometric mean (%CV) [3]: 0.4822 (53) % | CL/F, geometric mean (%CV) [3]: 183.7 (39) L/h | Cav, geometric mean (%CV) [3]: 113.3 (39) ng/mL | Cmin, geometric mean (%CV) [3]: 20.07 (76) ng/mL | PTF (peak-trough fluctuation), geometric mean (%CV) [3]: 1.911 (14) | Rac (observed accumulation ratio), geometric mean (%CV) [3]: 1.009 (13) | Ae24% (drug recovered unchanged in urine up to 24 h), geometric mean (%CV) [4]: 0.6372 (34) % | CL/F, geometric mean (%CV) [4]: 206.1 (28) L/h | Cav, geometric mean (%CV) [4]: 200.1 (28) ng/mL | Cmin, geometric mean (%CV) [4]: 51.48 (68) ng/mL | PTF (peak-trough fluctuation), geometric mean (%CV) [4]: 1.307 (18) | Rac (observed accumulation ratio), geometric mean (%CV) [4]: 1.068 (26) | Ae24% (drug recovered unchanged in urine up to 24 h), geometric mean (%CV) [5]: 0.4885 (24) % | CL/F, geometric mean (%CV) [5]: 302.9 (24) L/h | CLr (renal clearance), geometric mean (%CV) [5]: 23.14 (19) mL/min | Cav, geometric mean (%CV) [5]: 206.3 (24) ng/mL | Cmin, geometric mean (%CV) [5]: 33.07 (50) ng/mL | PTF (peak-trough fluctuation), geometric mean (%CV) [5]: 1.868 (12) | Rac (observed accumulation ratio), geometric mean (%CV) [5]: 0.9377 (32) | Ae24% (drug recovered unchanged in urine up to 24 h), geometric mean (%CV) [6]: 0.300 (70) % | CL/F, geometric mean (%CV) [6]: 308.0 (65) L/h | Cav, geometric mean (%CV) [6]: 40.62 (65) ng/mL | Cmin, geometric mean (%CV) [6]: 6.471 (55) ng/mL | PTF (peak-trough fluctuation), geometric mean (%CV) [6]: 3.383 (37) | Rac (observed accumulation ratio), geometric mean (%CV) [6]: 0.8985 (24) | Dose recovered unchanged in urine (all dose groups): Less than 1% | Steady state reached by (all dose groups, based on Cmin): ≤ 4 days | AUC [7]: 164 ng·h/mL | Cmax [7]: 30 ng/mL | Tmax [7]: 2 h | AUC [8]: 204 ng·h/mL | Cmax [8]: 36.2 ng/mL | Tmax [8]: 2 h | AUC [9]: 566 ng·h/mL | Cmax [9]: 102 ng/mL | Tmax [9]: 2.03 h | AUC [10]: 776 ng·h/mL | Cmax [10]: 128 ng/mL | Tmax [10]: 2.02 h | AUC [11]: 1350 ng·h/mL | Cmax [11]: 226 ng/mL | Tmax [11]: 4 h | AUC [12]: 1360 ng·h/mL | Cmax [12]: 238 ng/mL | Tmax [12]: 2.02 h | AUC [13]: 1150 ng·h/mL | Cmax [13]: 149 ng/mL | Tmax [13]: 4 h | AUC [14]: 975 ng·h/mL | Cmax [14]: 147 ng/mL | Tmax [14]: 4 h | AUC [15]: 1500 ng·h/mL | Cmax [15]: 309 ng/mL | Tmax [15]: 2.03 h | AUC [16]: 1600 ng·h/mL | Cmax [16]: 318 ng/mL | Tmax [16]: 2 h | AUC [17]: 2580 ng·h/mL | Cmax [17]: 470 ng/mL | Tmax [17]: 3.12 h | AUC [18]: 2480 ng·h/mL | Cmax [18]: 421 ng/mL | Tmax [18]: 2 h | AUC [19]: 2010 ng·h/mL | Cmax [19]: 517 ng/mL | Tmax [19]: 4 h | Tmax at 1 day (human, plasma, oral, day 1, range across IR 25 to 1000 mg, standard meal, read-out: Median Tmax): 2 to 4 h | Tmax at 14 day (human, plasma, oral, day 14, IR formulations, standard meal, read-out: Median Tmax): 2 h | half-life (human, plasma, oral, range for IR 750 mg BID, IR 330 mg TID, MR 300 mg QD, read-out: Mean half-life at steady state): 1520 to 1880 min | Vd/F (human, plasma, oral, IR 25 mg BID, day 14, fed (standard meal), read-out: Vz/F, geometric mean (%CV)): 9650 L | Vd/F (human, plasma, oral, IR 100 mg BID, day 14, fed (standard meal), read-out: Vz/F, geometric mean (%CV)): 8060 L | Vd/F (human, plasma, oral, IR 250 mg BID, day 14, fed (standard meal), read-out: Vz/F, geometric mean (%CV)): 10200 L | Vd/F (human, plasma, oral, IR 330 mg TID, day 14, fed (standard meal), read-out: Vz/F, geometric mean (%CV)): 10100 L | Vd/F (human, plasma, oral, IR 750 mg BID, day 14, fed (standard meal), read-out: Vz/F, geometric mean (%CV)): 13200 L | Vd/F at 14 day (human, plasma, oral, MR 300 mg QD, day 14, fed (standard meal), read-out: Vz/F, geometric mean (%CV)): 11600 L | Vd at 14 day (human, plasma, oral, range across all dosages, day 14, read-out: Mean volume of distribution): 8060 to 13200 L | CL renal (human, urine and plasma, oral, 300 mg, MR 300 mg QD, day 14, fed (standard meal), read-out: CLr (renal clearance), geometric mean (%CV)): 15.4 mL/min | CL renal (human, urine and plasma, oral, 330 mg, IR 330 mg TID, day 14, fed (standard meal), read-out: CLr (renal clearance), geometric mean (%CV)): 18.8 mL/min | CL renal (human, urine and plasma, oral, range for IR < 750 mg and MR 300 mg, read-out: Renal clearance): 14 to 23 mL/min | CL renal at 14 day (human, urine, oral, 25 mg, IR 25 mg BID, day 14, fed (standard meal), read-out: CLr (renal clearance), geometric mean (%CV)): 13.6 mL/min | CL renal at 14 day (human, urine, oral, 100 mg, IR 100 mg BID, day 14, fed (standard meal), read-out: CLr (renal clearance), geometric mean (%CV)): 18.5 mL/min | CL renal at 14 day (human, urine, oral, 250 mg, IR 250 mg BID, day 14, fed (standard meal), read-out: CLr (renal clearance), geometric mean (%CV)): 13.9 mL/min | CL renal (human, urine, oral, 750 mg, IR 750 mg BID, day 14, fed (standard meal), read-out: CLr (renal clearance), geometric mean (%CV)): 23 mL/min | CL renal (human, urine, oral, range for IR 25 mg BID, IR 330 mg TID and MR 300 mg QD, read-out: Renal clearance): 14 to 19 mL/min
